US4122088A, “Dicarboxyphenyl substituted bis-sulfonylimino dibenzodithiazepine tetroxides” (American Cyanamid Company, priority 1977, dated 1978)
Structures can show the parent of a compound that is named as a salt. Where two headings read alike, the source gives them in different places.

Tests used:
human C1 = assay: Test, Code 026 (C1 inhibitor): ability of activated human C1 to destroy fluid phase human C2 in the presence of C4; format: biochemical; conditions: serial dilution assay, two-fold dilutions; higher well number indicates higher activity
Source text: (§1) An active inhibitor protects C2 from C1 and C4; (ii) Test, Code 035 (C3-C9 inhibitor) - This test determines the ability of the late components of human complement (C3-C9) to lyse EAC 142 in the presence of appropriate dilutions of the test compound. An active inhibitor protects EAC 142 from lysis by human C3-C9; (iii) Test, Code 036 (C-Shunt inhibitor) - In this test human erythrocytes rendered fragile are lysed in autologous serum via the shunt pathway activated by cobra venom factor in the presence of appropriate dilutions of the test compound. Inhibition of the shunt pathway results in failure of lysis; (iv) Forssman Vasculitis Test -- Here, the well known complement dependent lesion, Forssman vasculitis, is produced in guinea pigs by intradermal injection of rabbit anti-Forssman antiserum. […]

[1] = tested on: late components of human complement (C3-C9); assay: Test, Code 035 (C3-C9 inhibitor): lysis of EAC 142 by late components of human complement; format: cell-based; set-up: key: Negative; conditions: serial dilution assay, two-fold dilutions; higher well number indicates higher activity
Source text: as §1

shunt pathway = assay: Test, Code 036 (C-Shunt inhibitor): lysis of human erythrocytes in autologous serum via the shunt pathway activated by cobra venom factor; format: cell-based; conditions: serial dilution assay, two-fold dilutions; higher well number indicates higher activity
Source text: as §1

whole complement = assay: Complement Level Reduction Test: whole complement in serum of dosed guinea pigs, capillary tube assay; format: in vivo; conditions: Cavia porcellus, ip, guinea pig, i.p., versus simultaneous controls
Source text: An active inhibitor protects C2 from C1 and C4; (ii) Test, Code 035 (C3-C9 inhibitor) - This test determines the ability of the late components of human complement (C3-C9) to lyse EAC 142 in the presence of appropriate dilutions of the test compound. An active inhibitor protects EAC 142 from lysis by human C3-C9; (iii) Test, Code 036 (C-Shunt inhibitor) - In this test human erythrocytes rendered fragile are lysed in autologous serum via the shunt pathway activated by cobra venom factor in the presence of appropriate dilutions of the test compound. Inhibition of the shunt pathway results in failure of lysis; (iv) Forssman Vasculitis Test -- Here, the well known complement dependent lesion, Forssman vasculitis, is produced in guinea pigs by intradermal injection of rabbit anti-Forssman antiserum. The lesion is measured in terms of diameter, edema and hemorrhage and the extent to which a combined index of these is inhibited by prior intraperitoneal injection of the test compound at 200 mg/kg is then reported, unless otherwise stated; (v) Forssman Shock Test -- Lethal shock is produced in guinea pigs by an i.v. injection of anti-Forssman antiserum and the harmonic mean death time of treated guinea pigs is compared with that of simultaneous controls; (vi) Complement Level Reduction Test - In this test, the above dosed guinea pigs, or others, are bled for serum and the complement level is determined in undiluted serum by the capillary t3be method of U.S. Pat. No. 3,876,376 and compared to undosed control guinea pigs; and (vii) Cap 50 Test -- Here, appropriate amounts of the test compound are added to a pool of guinea pig serum in vitro, after which the undiluted serum capillary tube assay referred to above is run. The concentration of compound inhibiting 50% is reported.
With reference to Table I, guinea pigs weighing about 300 g were dosed intravenously (i.v.) or intraperitoneally (i.p.) with 200 mg/kg of the test compound dissolved in saline and adjusted to pH 7-8. […] Percent inhibition was calculated by comparison with simultaneous controls. […]

complement system = conditions: literature reports; cited from earlier work
[2] = New England Journal of Medicine, 286, 808-812 (1972); cited from earlier work

For `O=C(O)c1cc(NS(=O)(=O)c2ccc3c(c2)S(=O)(=O)N(c2cc(C(=O)O)cc(C(=O)O)c2)S(=O)(=O)c2cc(S(=O)(=O)Nc4cc(C(=O)O)cc(C(=O)O)c4)ccc2-3)cc(C(=O)O)c1` [5,5'-{[6-(3,5-Dicarboxyphenyl)dibenzo[d,f][1,3,2]-dithiazepine-3,9-diyl]bis(sulfonylimino)}diisophthalic acid hexasodium salt S,S,S',S'-tetroxide], the “C1 026* Wells” value (human C1) was “+5 Wells”, the “C-Late 035* Wells” value [1] was “N” and the “Shunt Inhibition 036* Wells” value (shunt pathway) was “+3 Wells”. For the same compound, the inhibition at 200 mg/kg (whole complement; 0.5 h, 30 min, read-out: In Vivo Activity (Guinea Pig) % Inhibition, Intraperitoneal, 30 minutes) was -23%, the inhibition at 200 mg/kg (whole complement; 1 h, 60 min, read-out: In Vivo Activity (Guinea Pig) % Inhibition, Intraperitoneal, 60 minutes) was -57% and the inhibition at 200 mg/kg (whole complement; 2 h, 120 min, read-out: In Vivo Activity (Guinea Pig) % Inhibition, Intraperitoneal, 120 minutes) was -42%.

For `Nc1ccc2cc(S(=O)(=O)O)cc(O)c2c1N=Nc1ccc(NC(=O)Nc2ccc(N=Nc3c(N)ccc4cc(S(=O)(=O)O)cc(O)c34)c(S(=O)(=O)O)c2)cc1S(=O)(=O)O` [chlorazol fast pink, 3,3'-ureylenebis-[6-(2-amino-8-hydroxy-6-sulfo-1-naphthylazo)] benzenesulfonic acid, tetrasodium salt], the “anticomplementary effect / inhibition of the complement system” value (from here on “anticomplementary effect / inhibition”) (complement system) is listed as “anticomplementary effect”.

In the case of heparin, the “anticomplementary effect / inhibition” value (complement system) is given as “anticomplementary effect”.

For `NCCCCCC(=O)O` [epsilon-aminocaproic acid], the “use in the treatment of hereditary angioneurotic edema” value [2] is given as “used with success”.

In the case of `Cc1ccc(C(=O)Nc2ccc(S(=O)(=O)O)c3cc(S(=O)(=O)O)cc(S(=O)(=O)O)c23)cc1NC(=O)c1cccc(NC(=O)Nc2cccc(C(=O)Nc3cc(C(=O)Nc4ccc(S(=O)(=O)O)c5cc(S(=O)(=O)O)cc(S(=O)(=O)O)c45)ccc3C)c2)c1` [Suramin], the “anticomplementary effect / inhibition” value (complement system) is listed as “competitive inhibitor of the complement system”.

In the case of `NC[C@H]1CC[C@H](C(=O)O)CC1` [tranexamic acid], the “use in the treatment of hereditary angioneurotic edema” value [2] is listed as “used with success”.
